# Measured values published in patent US6987093B2 (priority 2001, dated 2006).
# Several values for one entry are separate records, joined by “and”; a condition that tells them apart may be missing. Equal values may be shown once. Read-outs that look alike come from different tables or passages of the source.
# How the values were obtained:
# Mycoplasma pneumoniae = settings: single oral 10 mg/kg dose; only one of several macrolides tested; cited from earlier work
# M. catarrhalis = assay: Susceptibility testing of trial M. catarrhalis isolates; format: cell-based, Moraxella catarrhalis; settings: NCCLS criteria
# Excerpt: (§1) Samples of middle ear fluid were split for storage at a central laboratory and cultured locally. All pathogens isolated locally were subcultured and sent to a central laboratory for confirmation and susceptibility testing, performed by Kirby-Bauer disk-diffusion or MIC testing according to NCCLS standards.
# (§2) Cultures were taken for antimicrobial susceptibility testing and bacterial species were identified. Current NCCLS approved breakpoints for MICs and zone sizes were applied to all data irrespective of the breakpoint in use at the time of the study. The isolates from the clinical studies were sent to central laboratories for identification and susceptibility determination. The methods for agar diffusion disk tests are those recommended by NCCLS.
# (§3) The susceptibility breakpoints for azithromycin were defined as follows: […]
# H. influenzae [1] = assay: Susceptibility testing of trial H. influenzae isolates; format: cell-based, Haemophilus influenzae; settings: NCCLS criteria
# Excerpt: as §1, §2, §3
# [2] = system: Haemophilus influenzae 54A1100; assay: Gerbil middle ear (otitis media) infection model, ED50, H. influenzae 54A1100; format: in vivo
# [3] = system: Streptococcus pyogenes 02C0203; assay: Murine acute infection (peritonitis) model challenged with Streptococcus pyogenes; format: in vivo, mouse
# [4] = system: Streptococcus pneumoniae 02J1016; assay: Murine lung (pulmonary/pneumonia) infection model challenged with Streptococcus pneumoniae; format: in vivo, mouse
# Chlamydia trachomatis = settings: azithromycin (± an anti-inflammatory agent); cited from earlier work
# H. influenzae 54A1218 = assay: MIC determination, H. influenzae 54A1218; format: cell-based; settings: Haemophilus influenzae
# Experimental: MIC Determinations. Streptococcus pneumoniae, S. pyogenes, E. faecalis, and H. influenzae MICs were determined using the broth microdilution procedure recommended by the NCCLS. Test trays were incubated at 35C without carbon dioxide. For testing of streptococci, the cation-adjusted Mueller-Hinton broth was supplemented with 2–3% lysed horse blood. For testing H. influenzae, freshly prepared Haemophilus Test Medium broth was used.
# Bacterial Strains. • S. pneumoniae 02J1016, serotype 3, originally isolated from blood culture (strain P 4241) (MLS- and penicillin-susceptible). • S. pyogenes 02C0203, ATCC 12384, group A, type 3 (MLS-susceptible). • E. faecalis 03A1085, vancomycin susceptible clinically derived strain. • H. influenzae 54A1100, (43095 ATCC Fulghum strain) non-serotype B strain originally isolated from otitis media (macrolide and penicillin susceptible). • H. influenzae 54A1218, clinically derived non-serotype B strain (macrolide-susceptible, penicillin-resistant, TEM-1 beta-lactamase).
# H. influenzae [5] = assay: Study 95-001 Kirby-Bauer disk diffusion susceptibility, H. influenzae; format: cell-based, Haemophilus influenzae; settings: all H. influenzae organisms isolated
# Experimental: Specimens for culture and susceptibility testing were obtained from the infected ear by tympanocentesis within 24 h of start of therapy. […] However, the study was evaluated using the breakpoints in the most recent set of guidelines.
# [6] = system: Haemophilus influenzae 54A1218; assay: Gerbil middle ear infection in vivo time kill, H. influenzae 54A1218; settings: for eradication: at 72 and 96 hours post-infection
# [7] = Azithromycin pulmonary tissue pharmacokinetics in mice; format: in vivo; settings: female, CF-1, mouse, lung (pulmonary tissue), Pulmonary PK, total dose 100 mg/kg oral; for AUC(0-t): read-out: AUC(0-tlast)
# Experimental: Blood and pulmonary tissue samples were taken starting at 0.5 h post-dose and at predetermined intervals over a 96 h period. Plasma and lung samples were prepared and maintained at −70 C. […] The lower limit of quantification (LLOQ) was 50 ng/ml. […] Interassay variability was <7%. Pharmacokinetic parameters were calculated using the non-compartmental method by WinNonlin 2.1 (Scientific Consulting, Inc.).
# [8] = oral QD, gerbil otitis media model
# [9] = oral QD, murine peritonitis model
# [10] = oral QD, murine pneumonia model
# [11] = 33 mg/kg, 3 days of dosing, 33.3 mg/kg/dose
# [12] = 1 day of dosing, 100 mg/kg/dose
# [13] = 2 days of dosing, 50 mg/kg/dose
structure (smiles),measurement,setting,value
"CC[C@H]1OC(=O)[C@H](C)[C@@H](O[C@H]2C[C@@](C)(OC)[C@@H](O)[C@H](C)O2)[C@H](C)[C@@H](O[C@@H]2O[C@H](C)C[C@H](N(C)C)[C@H]2O)[C@](C)(O)C[C@@H](C)CN(C)[C@H](C)[C@@H](O)[C@]1(C)O [Azithromycin, 9a-aza-9a-methyl-9-deoxo-9a-homoerythromycin A]",efficacy,Mycoplasma pneumoniae,efficacious
same,susceptibility of isolated M. catarrhalis to azithromycin,M. catarrhalis,susceptible
same,susceptibility of isolated H. influenzae to azithromycin,H. influenzae [1],susceptible
same,ED50,[2]; Dosing Regimen 1 day,138.1 (118.7–157.6) mg/kg/total
same,ED50,[2]; Dosing Regimen 2 days,138.1 (118.7–157.6) mg/kg/total
same,ED50,[2]; Dosing Regimen 3 days,162.9 (140–185.9) mg/kg/total
same,ED50 One-Day Therapy,[2]; [8],138 mg/kg/therapy
same,ED50 Three-Day Therapy,[2]; [8],163 mg/kg/therapy
same,ED50 Two-Day Therapy,[2]; [8],138 mg/kg/therapy
same,ED50,"[2]; past studies, Q.D. 3",162.7 mg/kg/total regimen
same,Oral PD50,[3]; Dosing Regimen 1 day,1.0 (0.6–1.4) mg/kg/day
same,Oral PD50,[3]; Dosing Regimen 2 days,2.5 (1.8–3.3) mg/kg/day
same,Oral PD50,[3]; Dosing Regimen 3 days,3.8 (3.8–3.9) mg/kg/day
same,Mice Surviving/Total,"[3]; mouse, in vivo",1/10 and 10/10 and 8/10 and 3/10 and 0/10 and 9/10 and 7/10
same,ED50 One-Day Therapy,[3]; [9],0.78^1 mg/kg/therapy
same,ED50 Two-Day Therapy,[3]; [9],1.1 mg/kg/therapy
same,Oral PD50,[4]; Dosing Regimen 1 day,20.4 (16.4–24.3) mg/kg/day
same,Oral PD50,[4]; Dosing Regimen 2 days,27.6 (22.8–32.4) mg/kg/day
same,Oral PD50,[4]; Dosing Regimen 3 days,49.4 (28.1–70.8) mg/kg/day
same,Mice Surviving/Total,"[4]; mouse, in vivo",0/10 and 10/10 and 7/10 and 1/10 and 9/10 and 4/10
same,ED50 One-Day Therapy,[4]; [10],20^1 mg/kg/therapy
same,ED50 Three-Day Therapy,[4]; [10],49 mg/kg/therapy
same,ED50 Two-Day Therapy,[4]; [10],27 mg/kg/therapy
same,preserving fertility,Chlamydia trachomatis,superior to doxycycline and ofloxacin combinations
same,MIC,H. influenzae 54A1218,0.78 µg/mL
same,zone sizes (agar diffusion),H. influenzae [5],≥ 19 mm
same,susceptibility by agar diffusion (zone size),H. influenzae [5]; NCCLS breakpoint of ≧12 mm,susceptible
same,Recoverable CFU (Bulla) [Log10.Geo.Mean] (SEM),"[6]; 66.6 mg/kg/day oral Q.D. [3 days], 48 hours post-infection",<5.2399 (1.21) log of cfu-bulla wash/ml and <5.2399 log of cfu-bulla wash/ml
same,Recoverable CFU (Bulla) [Log10.Geo.Mean] (SEM),"[6]; 66.6 mg/kg/day oral Q.D. [3 days], 72 hours post-infection",<2.0000 log of cfu-bulla wash/ml
same,Recoverable CFU (Bulla) [Log10.Geo.Mean] (SEM),"[6]; 66.6 mg/kg/day oral Q.D. [3 days], 96 hours post-infection",<2.0000 log of cfu-bulla wash/ml
same,Recoverable CFU (Bulla) [Log10.Geo.Mean] (SEM),"[6]; 100 mg/kg/day oral Q.D. [2 days], 48 hours post-infection",<3.8587 (1.04) log of cfu-bulla wash/ml and <3.857 log of cfu-bulla wash/ml
same,Recoverable CFU (Bulla) [Log10.Geo.Mean] (SEM),"[6]; 100 mg/kg/day oral Q.D. [2 days], 72 hours post-infection",<2.0000 log of cfu-bulla wash/ml
same,Recoverable CFU (Bulla) [Log10.Geo.Mean] (SEM),"[6]; 100 mg/kg/day oral Q.D. [2 days], 96 hours post-infection",<2.0000 log of cfu-bulla wash/ml
same,Recoverable CFU (Bulla) [Log10.Geo.Mean] (SEM),"[6]; 200 mg/kg/day oral Q.D. [1 day], 48 hours post-infection",<2.0000 log of cfu-bulla wash/ml
same,Recoverable CFU (Bulla) [Log10.Geo.Mean] (SEM),"[6]; 200 mg/kg/day oral Q.D. [1 day], 72 hours post-infection",<2.0602 log of cfu-bulla wash/ml
same,Recoverable CFU (Bulla) [Log10.Geo.Mean] (SEM),"[6]; 200 mg/kg/day oral Q.D. [1 day], 96 hours post-infection",<2.0000 log of cfu-bulla wash/ml
same,eradication,[6]; Q.D. 2,eradication was observed
same,eradication,[6]; Q.D. 3,eradication was observed
same,% Clearance of Group,"[6]; QD1, 48 hours post infection, <1 × 10^3 cfu/ml considered negative",100%
same,% Clearance of Group,"[6]; QD1, 72 hours post infection",100%
same,% Clearance of Group,"[6]; QD1, 96 hours post infection",100%
same,% Clearance of Group,"[6]; QD2, 48 hours post infection",40%
same,% Clearance of Group,"[6]; QD2, 72 hours post infection",100%
same,% Clearance of Group,"[6]; QD2, 96 hours post infection",100%
same,% Clearance of Group,"[6]; QD3, 48 hours post infection",40%
same,% Clearance of Group,"[6]; QD3, 72 hours post infection",100%
same,% Clearance of Group,"[6]; QD3, 96 hours post infection",100%
same,Cmax,[7]; [11],28000 ng/mL
same,Tmax,[7]; [11],12 h
same,AUC(0-t),[7]; [11],1050 µg·h/mL
same,Cmax,[7]; [12],40000 ng/mL
same,Tmax,[7]; [12],4 h
same,AUC(0-t),[7]; [12],970 µg·h/mL
same,Cmax,[7]; [13],31000 ng/mL
same,Tmax,[7]; [13],28 h
same,AUC(0-t),[7]; [13],870 µg·h/mL
